In patent publication US11084783B2, “O-alkyl-benzylideneguanidine derivatives and therapeutic use for the treatment of disorders associated with an accumulation of misfolded proteins” (INFLECTIS BIOSCIENCE, priority 2014, dated 2021):

What was measured:
Format in all cases: cell-based
human alpha2A receptor = target: T1, human alpha2A receptor (Homo sapiens, UniProt P08913); assay: Functional GPCR assay for adrenergic α2A receptor (CellKey detection method); settings: agonist activity, CHO cells expressing human alpha2A receptor, impedance (CellKey); read-out: Functional adrenergic alpha2 receptor assay EC50
T1 construct: CHO cells endogenously expressing human alpha2A receptor; endogenous in cells; host or cells: CHO cells
T1 sequence (P08913 1-465): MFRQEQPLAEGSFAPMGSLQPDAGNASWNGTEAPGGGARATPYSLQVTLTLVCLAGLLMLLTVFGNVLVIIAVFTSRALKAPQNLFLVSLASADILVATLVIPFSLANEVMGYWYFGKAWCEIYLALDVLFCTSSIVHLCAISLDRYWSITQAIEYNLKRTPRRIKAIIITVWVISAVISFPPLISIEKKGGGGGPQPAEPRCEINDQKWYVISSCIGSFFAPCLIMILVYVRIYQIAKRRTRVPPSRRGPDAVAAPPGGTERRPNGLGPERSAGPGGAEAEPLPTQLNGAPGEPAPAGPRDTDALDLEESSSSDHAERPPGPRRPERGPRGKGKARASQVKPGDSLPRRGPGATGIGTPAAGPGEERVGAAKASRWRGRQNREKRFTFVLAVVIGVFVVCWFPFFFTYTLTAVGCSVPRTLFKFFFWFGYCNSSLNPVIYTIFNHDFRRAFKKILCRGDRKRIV
Procedure: The agonist activity of compounds was evaluated on CHO cells […] expressing human alpha2A receptor and was determined by measuring their effects on impedance modulation using the CellKey detection method. Cells were seeded onto 96-well plate at density of 6×10^4 cells/well in HBSS buffer (Invitrogen)+20 mM HEPES (Invitrogen) with 0.1% BSA and are allowed to equilibrate for 60 min at 28° C. before the start of the experiment. Plates were placed onto the system and measurements were made at a temperature of 28° C. Solutions were added simultaneously to all 96 wells using an integrated fluidics system: HBSS (basal control), reference agonist at 100 nM (stimulated control), reference agonist (EC50 determination) or the test compounds. Impedance measurements are monitored for 10 minutes after ligand addition. The standard reference agonist is epinephrine, which is tested in each experiment at several concentrations to generate a concentration-response curve from which its EC50 value is calculated.
Dose-response data from test compounds were analysed with Hill software using non-linear regression analysis of the concentration-response curves generated with mean replicate values using Hill equation curve fitting.

HeLa cells = assay: Cytoprotection from ER stress (tunicamycin), cell viability by WST-8; design: key to Cytoprotection from ER stress compared to guanabenz: +: lower cytoprotective effect compared to Guanabenz; ++: similar cytoprotective effect compared to Guanabenz; +++: higher cytoprotective effect compared to Guanabenz; settings: for Cytoprotection from ER stress compared to guanabenz: HeLa cells, 6 hour exposure to tunicamycin 5 μg/mL, compounds 0.5-10 μM, viability 48 h or 72 h
Excerpt: Cytoprotection against ER stress can be measured by a suitable assay. For example, cytoprotection can be measured in HeLa cells in which ER stress is elicited by the addition of media containing tunicamycin, a mixture of homologous nucleoside antibiotics that inhibits the UDP-HexNAc: polyprenol-P HexNAc-1-P family of enzymes and is used to induce unfolded protein response. Cell viability can be detected in the presence and absence of inhibitor compounds after a set period of time, by measuring the reduction of WST-8 into formazan using a standard cell viability kit (such as Cell Viability Counting Kit-8 from Dojindo). Cytoprotection from ER stress is measured in terms of the percentage increase in viable cells (relative to control) after ER stress. Further details of a suitable assay are set forth in the accompanying Examples section.
This assay is described in Tsaytler et al. (Science 2011). HeLa Cells were cultured in Eagle's Minimum Essential Medium (EMEM) supplemented with Glutamine, Sodium Pyruvate, Non-Essential Amino Acids, Penicillin and Streptomycin containing 10% Foetal Bovine Serum (FBS), at 37° C. in 5% CO2 atmosphere. Cells were plated in 96 well plates at a density of 17,000 cells/mL the day before the treatment. ER stress was elicited by addition of 5 μg/mL tunicamycin (Sigma-Aldrich) together with PPP1R15A inhibitors (0.5-10 μM). Media were changed 6h later with fresh media and the cytoprotection was maintained by the addition of PPP1R15A inhibitors (0.5-10 μM). Cell viability was assessed by measuring the reduction of WST-8 into formazan using Cell Counting Kit-8 (Sigma) according to the supplier's recommendation, 48 h or 72h after tunicamycin treatment. Cytoprotection from ER stress is measured in terms of cytoprotective potency effect compared to the reference compound Guanabenz (Tsaytler et al., Science 2011) after ER stress: • ‘+’ no cytoprotective effect; • ‘+’ lower cytoprotective effect compared to Guanabenz; • ‘++’ similar cytoprotective effect compared to Guanabenz; • ‘+++’ higher cytoprotective effect compared to Guanabenz.
Table 1 summarizes the results of cytoprotective effect of different compounds of the invention, compared to guanabenz, after the stress induced by a 6 hour exposure of tunicamycin.

INS1 insulinoma cell = assay: INS1 cell line cytoprotection from ER stress (tunicamycin); settings: 6 hour exposure to tunicamycin 2.5 μg/mL, different concentrations, viability 72h
Procedure: Cells were plated in 96 well plates at a density of 0.5.10^6 cells/mL for Min6 cell line, 0,4.10^6 cells/mL for INS1 cell line the day before the treatment. ER stress was elicited by addition of 2.5 μg/mL tunicamycin (Sigma Aldrich) together with phosphatases inhibitors. Media were changed 6h later with fresh media and the cytoprotection was maintained by the addition of phosphatases inhibitors. Cell viability was assessed by measuring the reduction of WST-8 into formazan using Cell Counting Kit-8 (Sigma) according to the supplier's recommendation, 72h after tunicamycin treatment.

SMILES | EC50 (human alpha2A receptor) [µM] | Cytoprotection from ER stress compared to guanabenz (HeLa cells) | prevention of INS1 insulinoma cell death (FIG. 8) (INS1 insulinoma cell) | protection of Hela cells from ER stress (FIG. 1) (HeLa cells; ER stress induced by 6 hour exposure to tunicamycin)
CCONC(=N)N/N=C/c1c(F)cccc1Cl [Compound 17, 2-(2-chloro-6-fluorobenzylidene)-N-ethoxyhydrazinecarboximidamide] | > 33.3 | +++ | prevent INS1 insulinoma cell death | 
CCCONC(=N)N/N=C/c1ccccc1Cl [Compound 12, 2-(2-chlorobenzylidene)-N-propoxyhydrazinecarboximidamide] | > 33.3 | +++ | prevent INS1 insulinoma cell death | dose dependent protection
CCO/N=C(\N)N/N=C/c1ccccc1Cl [Compound 10, 2-(2-chlorobenzylidene)-N′-ethoxyhydrazinecarboximidamide] | > 33.3 | ++ |  | 
CCONC(=N)N/N=C/c1c(Cl)cccc1Cl [Compound 11, 2-(2,6-dichlorobenzylidene)-N-ethoxyhydrazinecarboximidamide] | > 0.7 | +++ | prevent INS1 insulinoma cell death | 
